Experimental data as given in patent publication US7465730B2, “Treatment of neuropathic pain with 6H-pyrrolo[3,4-d]pyridazine compounds” (Merck & Co. Inc., priority 2002, dated 2008).

Test system: nerve injury-induced tactile allodynia
Experiment: Spinal nerve ligation model (Chung model) of neuropathic pain
Assay type: in vivo, Male Sprague Dawley rats
Details: rat
Excerpt: The spinal nerve ligation model of neuropathic pain was used to assess the effects of test compounds on nerve injury-induced tactile allodynia (S. H. Kim and J. M. Chung, Pain 50:355-363(1992)). Male Sprague Dawley rats (175-200 g) received unilateral tight ligation of the left L5/L6 spinal nerves distal to the dorsal root ganglion using 4-0 silk suture. Behavioral-nociceptive testing occurred 7-14 days following spinal nerve ligation by placing the rats in chambers on a wire mesh. Rats were tested for tactile allodynia (decreased hindpaw withdrawal threshold to non-noxious punctate stimulation) by applying a series of calibrated von Frey filaments to the plantar aspect of the left hindpaw ipsilateral to the site of nerve injury. The mean 50% hindpaw withdrawal threshold (g.) was determined using the Dixon “up-down” non-parametric test (Chaplan et al., J. Neurosci. Methods, 53:55-63(1994)). […] Following determination of pre-drug withdrawal thresholds, rats received either an i.p. or p.o. injection of test compound. The effect of the test compound on tactile allodynia was determined over time by measuring hindpaw withdrawal thresholds 30, 60, 90, 120 min post-injection. In above model, EXAMPLE 1 produced a 65% effect after i.p. dosing at 30 mg/kg, EXAMPLE 50 produced a 100% effect after i.p. dosing at 20 mg/kg, EXAMPLE 115 produced a 60% effect after i.p. dosing at 30 mg/kg i.p.

## CCOc1ccc(-n2c(C)c3c(C)nnc(-c4ccc(OC)cc4)c3c2C)cc1 [EXAMPLE 1, 6-(4-ethoxyphenyl)-1-(4-methoxyphenyl)-4,5,7-trimethyl-6H-pyrrolo[3,4-d]pyridazine]
i.p. dosing at 30 mg/kg
  effect on tactile allodynia (hindpaw withdrawal threshold): 65%

## CCOc1ccc(-n2c(C)c3c(C)nnc(C)c3c2C)cc1 [EXAMPLE 50, 6-(4-ethoxyphenyl)-1,4,5,7-tetramethyl-6H-pyrrolo[3,4-d]pyridazine]
i.p. dosing at 20 mg/kg
  effect on tactile allodynia (hindpaw withdrawal threshold): 100%

## CCOc1ccc(-n2c(C)c3c(C)nnc(NC4CCc5ccccc54)c3c2C)c(OC)c1 (stereo not drawn) [EXAMPLE 115, N-(2,3-dihydro-1H-inden-1-yl)-6-(4-ethoxy-2-methoxyphenyl)-4,5,7-trimethyl-6H-pyrrolo[3,4-d]pyridazin-1-amine]
i.p. dosing at 30 mg/kg
  effect on tactile allodynia (hindpaw withdrawal threshold): 60%
